Experimental data taken from ChEMBL document CHEMBL2203203, “Structure-activity relationships of 2-arylamido-5,7-dihydro-4H-thieno[2,3-c]pyran-3-carboxamide derivatives as cannabinoid receptor agonists and their analgesic action” (Bioorg Med Chem Lett, 2012).
pEC50, pKi: −log10 of the molar value. Calls of active or inactive are those of the source. The rule behind the calls is not given here.

Experiments:
Homo sapiens = species: Homo sapiens; test: Selectivity ratio of EC50 for human CB1 receptor to EC50 for human CB2 receptor
Cannabinoid receptor 1 [1] = biological target: T1, Cannabinoid receptor 1 (Homo sapiens, UniProt P21554); test: Agonist activity at human CB1 receptor after 4 hrs by luciferase reporter gene assay; type: functional
Cannabinoid receptor 1 [2] = biological target: T1, Cannabinoid receptor 1; test: Agonist activity at human CB1 receptor after 4 hrs by luciferase reporter gene assay relative to control; type: functional
Cannabinoid receptor 2 [3] = biological target: T2, Cannabinoid receptor 2 (Homo sapiens, UniProt P34972); test: Agonist activity at human CB2 receptor after 4 hrs by luciferase reporter gene assay relative to control; type: functional
Cannabinoid receptor 2 [4] = biological target: T2, Cannabinoid receptor 2; test: Agonist activity at human CB2 receptor after 4 hrs by luciferase reporter gene assay; type: functional
Cannabinoid receptor 1 [5] = biological target: T1, Cannabinoid receptor 1; test: Displacement of [3H]-CP55,940 from human CB1 receptor after 60 mins by microscintillation counting analysis
Cannabinoid receptor 2 [6] = biological target: T2, Cannabinoid receptor 2; test: Displacement of [3H]-CP55,940 from human CB2 receptor after 60 mins by microscintillation counting analysis
Mus musculus = test: Analgesic activity in NMRI mouse assessed as inhibition of acetic acid-induced writhing at 30 mg/kg, po measured for 30 mins relative to vehicle-treated control; type: functional; details: for inhibition in vivo at 30 mg/kg: 0.5 h
Cannabinoid receptor 1 [7] = biological target: Cannabinoid receptor 1 (Rattus norvegicus, UniProt P20272); test: Displacement of [3H]-CP55,940 from rat CB1 receptor after 60 mins by microscintillation counting analysis
[8] = Half life in mouse liver microsomes; type: ADME, Microsome
Cannabinoid receptor 2 [9] = biological target: T3, Cannabinoid receptor 2 (Rattus norvegicus, UniProt Q9QZN9); test: Displacement of [3H]-CP55,940 from rat CB2 receptor after 60 mins by microscintillation counting analysis
T3 sequence (Q9QZN9 whole entry): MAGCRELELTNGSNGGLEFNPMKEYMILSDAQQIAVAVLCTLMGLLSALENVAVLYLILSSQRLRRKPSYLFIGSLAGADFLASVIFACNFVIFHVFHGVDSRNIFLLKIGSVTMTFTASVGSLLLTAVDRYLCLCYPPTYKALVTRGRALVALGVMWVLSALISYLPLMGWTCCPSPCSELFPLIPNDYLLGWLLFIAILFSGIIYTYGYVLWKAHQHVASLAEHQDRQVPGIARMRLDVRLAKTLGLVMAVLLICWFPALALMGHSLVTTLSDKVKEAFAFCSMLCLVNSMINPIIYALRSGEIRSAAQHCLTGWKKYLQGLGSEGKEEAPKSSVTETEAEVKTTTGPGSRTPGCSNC

[10] = Half life in rat liver microsomes; type: ADME, Microsome

T2 sequence (P34972 whole entry): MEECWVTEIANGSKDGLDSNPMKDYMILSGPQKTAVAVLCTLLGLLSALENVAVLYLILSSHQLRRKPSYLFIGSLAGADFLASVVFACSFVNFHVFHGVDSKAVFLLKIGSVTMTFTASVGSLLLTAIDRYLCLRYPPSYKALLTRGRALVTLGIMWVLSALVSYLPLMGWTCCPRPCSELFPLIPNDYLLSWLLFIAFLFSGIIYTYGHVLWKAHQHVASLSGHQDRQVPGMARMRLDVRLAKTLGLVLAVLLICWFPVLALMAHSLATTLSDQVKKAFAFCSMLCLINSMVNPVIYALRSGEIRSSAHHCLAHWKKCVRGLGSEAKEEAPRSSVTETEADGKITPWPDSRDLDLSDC
Cannabinoid receptor 1 (Rattus norvegicus, UniProt P20272), sequence (P20272 whole entry): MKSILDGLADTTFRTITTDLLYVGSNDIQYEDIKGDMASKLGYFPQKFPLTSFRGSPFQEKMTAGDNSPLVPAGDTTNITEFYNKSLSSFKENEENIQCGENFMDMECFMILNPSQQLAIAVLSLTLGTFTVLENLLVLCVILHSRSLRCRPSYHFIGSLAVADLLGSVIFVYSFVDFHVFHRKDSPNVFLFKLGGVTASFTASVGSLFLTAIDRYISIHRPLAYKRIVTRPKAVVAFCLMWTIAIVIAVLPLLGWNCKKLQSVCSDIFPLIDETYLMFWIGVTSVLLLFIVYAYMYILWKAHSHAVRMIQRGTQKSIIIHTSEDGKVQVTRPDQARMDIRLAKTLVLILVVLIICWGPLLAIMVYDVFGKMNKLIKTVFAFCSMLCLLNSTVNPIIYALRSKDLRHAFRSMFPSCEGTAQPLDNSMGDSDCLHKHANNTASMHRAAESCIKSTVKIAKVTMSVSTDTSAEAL
T1 sequence (P21554 whole entry): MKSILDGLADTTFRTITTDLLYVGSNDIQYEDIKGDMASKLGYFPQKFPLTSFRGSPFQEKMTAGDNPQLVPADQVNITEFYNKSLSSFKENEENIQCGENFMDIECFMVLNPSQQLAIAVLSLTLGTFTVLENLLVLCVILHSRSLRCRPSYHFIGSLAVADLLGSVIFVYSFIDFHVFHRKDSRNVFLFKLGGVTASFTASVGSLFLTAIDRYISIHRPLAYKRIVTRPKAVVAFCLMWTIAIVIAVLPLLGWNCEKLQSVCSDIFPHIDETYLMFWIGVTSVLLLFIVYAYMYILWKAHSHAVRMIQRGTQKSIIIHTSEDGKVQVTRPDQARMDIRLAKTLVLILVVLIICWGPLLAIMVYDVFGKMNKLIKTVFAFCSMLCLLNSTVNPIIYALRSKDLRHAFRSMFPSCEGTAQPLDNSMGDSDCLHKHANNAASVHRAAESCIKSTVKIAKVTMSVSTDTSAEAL

Row | Structure (SMILES) | Ratio EC50 (Homo sapiens) | pEC50 (Cannabinoid receptor 1 [1]) | Efficacy (Cannabinoid receptor 1 [2]) | Efficacy (Cannabinoid receptor 2 [3]) | pEC50 (Cannabinoid receptor 2 [4]) | pKi (Cannabinoid receptor 1 [5]) | pKi (Cannabinoid receptor 2 [6]) | inhibition in vivo at 30 mg/kg (Mus musculus) | pKi (Cannabinoid receptor 1 [7]) | half-life [8] | pKi (Cannabinoid receptor 2 [9]) | half-life [10] | inhibition (Mus musculus)
1 | COC1CN(C(=O)c2c(NC(=O)CC(C)(C)C)sc3c2CCCC3)C1 | 85 | 5.40 | 63% | 110% | 7.33 | – | – | – | – | – | – | – | –
2 | COC1CN(C(=O)c2c(NC(=O)c3ccccc3C(F)(F)F)sc3c2CCOC3)C1 | 387 | 5.22 | 53% | 98% | 7.82 | < 4.52 | 6.05 | 15% | < 4.52 | 37.3 min | 5.51 | 50.4 min | –
3 | O=C(Nc1sc2c(c1C(=O)N1CCC(F)(F)CC1)CCOC2)c1ccccc1OC(F)(F)F | 38 | 6.90 | 79% | 96% | 8.48 | – | – | – | – | – | – | – | –
4 | COCCNC(=O)c1c(NC(=O)c2c(F)cccc2C(F)(F)F)sc2c1CCOC2 | 385 | 5.03 | 58% | 96% | 7.62 | < 4.52 | 6.04 | – | < 4.52 | 21 min | 5.77 | 13.6 min | inactive
5 | COCCNC(=O)c1c(NC(=O)c2ccccc2Cl)sc2c1CCC(F)(F)C2 | 21 | 6.02 | 97% | 105% | 7.34 | – | – | – | – | – | – | – | –
6 | O=C(Nc1sc2c(c1C(=O)N1CCOCC1)CCOC2)c1c(Cl)cccc1Cl | 7 | 5.33 | 78% | 76% | 6.16 | – | – | – | – | – | – | – | –
7 | CC1OCc2sc(NC(=O)CC(C)(C)C)c(C(=O)N3CC(F)(F)C3)c21 (stereo unspecified) | 36 | 6.66 | 94% | 105% | 8.22 | – | – | – | – | – | – | – | –
8 | O=C(Nc1sc2c(c1C(=O)N1CC(F)(F)C1)CCOC2)c1ccccc1OC(F)(F)F | 420 | 5.70 | 104% | 104% | 8.33 | < 4.52 | 6.62 | – | < 4.52 | 25.5 min | 5.34 | 6.4 min | inactive
9 | O=C(Nc1sc2c(c1C(=O)N1CCCCC1)CCOC2)c1c(F)cccc1C(F)(F)F | 71 | 6.00 | 94% | 103% | 7.85 | – | – | – | – | – | – | – | –
10 | COCCNC(=O)c1c(NC(=O)C2CCCC2)sc2c1CCCC2 | 113 | 5.10 | 61% | 81% | 7.15 | – | – | – | – | – | – | – | –
11 | CC(C)c1ccccc1C(=O)Nc1sc2c(c1C(=O)N1CCOCC1)CCOC2 | 42 | 5.82 | 105% | 101% | 7.46 | – | – | – | – | – | – | – | –
12 | O=C(Nc1sc2c(c1C(=O)N1CC(F)(F)C1)CCC(F)(F)C2)c1ccccc1Cl | 2 | 7.09 | 95% | 98% | 7.31 | – | – | – | – | – | – | – | –
13 | O=C(Nc1sc2c(c1C(=O)NCC1CC1)CCOC2)c1c(F)cccc1C(F)(F)F | 74 | 6.09 | 90% | 112% | 7.96 | – | – | – | – | – | – | – | –
14 | CC1(C)CCc2sc(NC(=O)c3ccccc3Cl)c(C(=O)NCC3CC3)c21 | 30 | 7.80 | 86% | 116% | 9.26 | – | – | – | – | – | – | – | –
15 | CC(C)(C)CC(=O)Nc1sc2c(c1C(=O)N1CCC(F)(F)CC1)CCCC2 | 24 | 6.95 | 86% | 82% | 8.33 | – | – | – | – | – | – | – | –
16 | O=C(Nc1sc2c(c1C(=O)NCC1CC1)CCOC2)c1ccccc1OC(F)(F)F | 15 | 6.28 | 88% | 94% | 7.46 | – | – | – | – | – | – | – | –
17 | O=C(CN1CCCCC1)Nc1sc2c(c1C(=O)N1CCC(F)(F)CC1)CCCC2 | 126 | 5.49 | 100% | 104% | 7.59 | – | – | – | – | – | – | – | –
18 | O=C(Nc1sc2c(c1C(=O)N1CCCCC1)CCOC2)c1ccccc1OC(F)(F)F | 98 | 6.03 | 85% | 101% | 8.02 | 4.71 | 6.46 | – | 4.65 | 10 min | 5.67 | 3.52 min | inactive
19 | O=C(Nc1sc2c(c1C(=O)N1CCOCC1)CCOC2)c1c(F)cccc1C(F)(F)F | 48 | 5.34 | 56% | 100% | 7.02 | – | – | – | – | – | – | – | –

Row | Structure (SMILES) | Ratio EC50 (Homo sapiens) | pEC50 (Cannabinoid receptor 1 [1]) | Efficacy (Cannabinoid receptor 1 [2]) | Efficacy (Cannabinoid receptor 2 [3]) | pEC50 (Cannabinoid receptor 2 [4]) | pKi (Cannabinoid receptor 1 [5]) | pKi (Cannabinoid receptor 2 [6]) | inhibition in vivo at 30 mg/kg (Mus musculus) | pKi (Cannabinoid receptor 1 [7]) | half-life [8] | pKi (Cannabinoid receptor 2 [9]) | half-life [10] | inhibition (Mus musculus)
20 | CC1OCc2sc(NC(=O)CC(C)(C)C)c(C(=O)N3CCCCC3)c21 (stereo unspecified) | 42 | 5.78 | 88% | 91% | 7.40 | – | – | – | – | – | – | – | –
21 | CC(C)(C)CC(=O)Nc1sc2c(c1C(=O)N1CC(F)(F)C1)CCCC2 | 63 | 6.47 | 91% | 99% | 8.27 | – | – | – | – | – | – | – | –
22 | O=C(Nc1sc2c(c1C(=O)N1CCC(F)(F)CC1)CCOC2)c1c(F)cccc1C(F)(F)F | 71 | 6.60 | 94% | 97% | 8.44 | – | – | – | – | – | – | – | –
23 | CC(C)(C)CC(=O)Nc1sc2c(c1C(=O)NCC1CC1)C(C)(C)CC2 | 38 | 6.61 | 96% | 101% | 8.19 | – | – | – | – | – | – | – | –
24 | COCCNC(=O)c1c(NC(=O)CC(C)(C)C)sc2c1C(C)(C)CC2 | 62 | 6.43 | 98% | 100% | 8.23 | – | – | – | – | – | – | – | –
25 | COCCNC(=O)c1c(NC(=O)CC(C)(C)C)sc2c1CCCC2 | 84 | 5.72 | 90% | 94% | 7.64 | – | – | – | – | – | – | – | –
26 | COC1CN(C(=O)c2c(NC(=O)c3c(F)cccc3C(F)(F)F)sc3c2CCOC3)C1 | 275 | 5.18 | 55% | 100% | 7.62 | – | – | – | – | – | – | – | –
27 | COCCNC(=O)c1c(NC(=O)c2ccccc2C(F)(F)F)sc2c1CCOC2 | 525 | 5.06 | 45% | 93% | 7.77 | < 4.52 | 6.00 | – | < 4.52 | 19.8 min | 5.60 | 17.8 min | inactive
28 | COC1CN(C(=O)c2c(NC(=O)c3ccccc3OC(F)(F)F)sc3c2CCOC3)C1 | 37 | 5.85 | 45% | 100% | 7.42 | – | – | – | – | – | – | – | –
29 | O=C(Nc1sc2c(c1C(=O)N1CCOCC1)CCOC2)c1ccccc1C(F)(F)F | 50 | 5.76 | 84% | 102% | 7.46 | – | – | – | – | – | – | – | –
30 | O=C(Nc1sc2c(c1C(=O)N1CCC(F)(F)CC1)CCOC2)c1ccccc1C(F)(F)F | 57 | 7.10 | 90% | 99% | 8.85 | – | – | – | – | – | – | – | –
31 | O=C(Nc1sc2c(c1C(=O)N1CCOCC1)CCOC2)c1ccccc1Cl | 14 | 5.49 | 85% | 112% | 6.64 | – | – | – | – | – | – | – | –
32 | COCCNC(=O)c1c(NC(=O)C2CCCN2C(=O)C2CC2)sc2c1CCCC2 (stereo unspecified) | > 29 | < 5.00 | – | 88% | 6.46 | – | – | – | – | – | – | – | –
33 | Cc1ccccc1C(=O)Nc1sc2c(c1C(=O)N1CCOCC1)CCOC2 | 12 | 5.13 | 97% | 105% | 6.19 | – | – | – | – | – | – | – | –
34 | COCCNC(=O)c1c(NC(=O)CC(C)(C)C)sc2c1CCOC2 | > 20 | < 5.00 | – | 101% | 6.31 | – | – | – | – | – | – | – | –
35 | COCCNC(=O)c1c(NC(=O)C2CCC2)sc2c1CCCC2 | > 49 | < 5.00 | – | 101% | 6.70 | – | – | – | – | – | – | – | –
36 | O=C(Nc1sc2c(c1C(=O)N1CC(F)(F)C1)CCOC2)c1ccccc1C(F)(F)F | 118 | 6.53 | 84% | 106% | 8.60 | 5.14 | 7.09 | 15% | < 4.52 | 37.4 min | 6.23 | 8 min | –
37 | O=C(Nc1sc2c(c1C(=O)N1CCCCC1)CCOC2)c1ccccc1C(F)(F)F | 204 | 6.22 | 93% | 99% | 8.52 | 4.93 | 6.62 | 32% | 4.82 | 15.5 min | 5.79 | 5.28 min | –
38 | O=C(Nc1sc2c(c1C(=O)N1CC(F)(F)C1)CCC(F)(F)C2)c1ccccc1OC(F)(F)F | 8 | 6.86 | 93% | 99% | 7.74 | – | – | – | – | – | – | – | –
